Results reported in patent US11247994B2, “6-dithio-substituted-2′-deoxyguanosine compound, preparation method thereof and use thereof” (ZHEJIANG UNIVERSITY, priority 2018, dated 2022).

Experiments:
[1] = Blood biochemical analysis and HE staining of tissues in HCT116 tumor-bearing nude mice; type: in vivo; conditions: tail vein once every two days, 12 times, blood 48 hours after the last treatment
Method: (§1) We took human colon cancer cell line HCT116 as the research object, and established a subcutaneous transplanted tumor model of human colon cancer in 32 immunodeficient nude mice. The 24th generation HCT116 cells in logarithmic growth phase were digested with pancreatin to prepare a single-cell suspension, and 1×10^7 cells were inoculated subcutaneously in the right armpit of male nude mice about 5 weeks old. After inoculation, cyclophosphamide (100 mg/kg) was injected intraperitoneally for two consecutive days. […] On the 20th day after colon cancer cell HCT116 was implanted subcutaneously, nude mice were divided into 7 groups by a random number table method, including a test drug group, a positive control group and a blank control group. Specifically, group A: the compound A was administrated; Group B: the compound B was administrated; Group C: the compound C was administrated; Group D: the compound D was administrated; Group E: the compound 6-thio-DG was administrated; Group F: the compound PX-12 was administrated; Group G: blank group, without administration of any compound. Except group C with 3 rats and group G with 4 rats, all other 5 groups had 5 rats, they mice were labeled and injected by tail vein once every two days for 24 days, 12 times, with the dose of compound A being 2 mg/kg for the first 8 times and 10 mg/kg for the last 4 times, and the dosages of other drugs being the same molar weights. The tumor volume was calculated by taking the length of the tumor as the longest diameter and the width as the corresponding vertical diameter, and the tumor volume V=(length×width^2) mm^3/2. 48 hours after the last treatment, blood was taken from the eyes, and then the animals were killed. Blood was centrifuged to get the supernatant, and then blood biochemical analysis was performed. Paraffin embedded sections of fixed tissues were stained with HE. The tumor mass in a frozen tissue was sectioned in a frozen state, and then stained by DAPI and TUNEL to judge the apoptosis of the tumor tissue in nude mice.

[2] = test system: human gastric cancer cells BGC; test: MTT assay, tumor cell growth inhibition, BGC; type: cell-based; conditions: 48 hours
From the text: (§2) MTT Assay—Inhibitory Effect of 6-dithio-substituted-2′-deoxyguanosine Derivatives on Tumor Cell Growth
(§3) We measured the tumor cell growth inhibitory activity of candidate compounds by MTT assay. Human tumor cells in logarithmic growth phase were digested with 0.25% pancreatin for a certain time, centrifuged, re-suspended and counted with a blood cell counting plate to prepare a cell suspension, and the cell suspension was adjusted to 1.0×10^4-1×10^5 cells/mL. The cell suspension was inoculated into a 96-well culture plate, 100 μL per well, and cultured in an incubator with saturated humidity, 37° C. and 5% CO2 for 24 hours until the cells completely adhered to the wall. The test compound was diluted to the required concentration with a complete medium, the complete medium of the 96-well culture plate inoculated with human tumor cells was sucked out, a medicament-containing medium was added, 100 μL per well, the final concentration of DMSO was less than 0.1%, and the culture plate was put in an incubator for 48 hours. 10 μl of MTT was added to each well of the 96-well plate, and the culture was continued for 4 h. The culture was stopped and the culture solution in the well was carefully sucked off. 150 μL DMSO was added to each well, and shaken at a low speed for 10 min on a shaking table, so that the crystal was fully dissolved. The absorbance of each well was measured at OD 570 nm of an enzyme-linked immunosorbent assay instrument. At the same time, zeroing wells (the culture medium, MTT, dimethyl sulfoxide) and control wells (cells, a drug dissolution medium with the same concentration, a culture solution, MTT, dimethyl sulfoxide) were set up, and the cell growth inhibitory activity was calculated with the corresponding solvents as the control. 3-6 multiple wells in each group were set up with repetition of several times. Cell viability of control=(Adrug group−Azeroing well)/(Acontrol well−Azeroing well)*100%. Drawing was drawn, the data were fitted into a concentration response curve with a variable slope, and IC50 value was calculated from the curve.

[3] = test system: human liver cancer cells HepG2; test: MTT assay, tumor cell growth inhibition, HepG2; type: cell-based; conditions: 48 hours
From the text: as §2, §3

[4] = test system: human leukemia cells K562; test: MTT assay, tumor cell growth inhibition, K562; type: cell-based; conditions: 48 hours
From the text: as §2, §3

[5] = test system: human melanoma cell A375 tumor; test: Human melanoma cell A375 tumor-bearing mouse model, antitumor effect; type: in vivo, nude mice; conditions: compound D 10 mg/kg, DTIC 20.4 mg/kg (4 times molar), 6-thio-dG+PX12 at twice the molar amount
Method: 2) Human Melanoma Cell A375 Tumor-Bearing Mouse Model
We further studied the inhibitory effect of the compound D on human malignant melanoma by using A375 tumor-bearing mouse model. The method was basically the same as above. Dacarbazine (DTIC) is the first-line drug for melanoma. The designed administration groups were: compound D 10 mg/kg group; 6-thio-dG+PX12 combined drug group (the dose is equivalent to twice the molar amount of the compound D); DTIC 20.4 mg/kg group (the dose is equivalent to 4 times the molar amount of the compound D) and blank solvent group.

[6] = test system: human colon cancer cell line HCT116 subcutaneous transplanted tumor; test: Tumor-bearing test in nude mice, HCT116 subcutaneous transplanted tumor (tumor volume, TUNEL); type: in vivo; conditions: HCT116 model
From the text: Tumor-Bearing Test in Nude Mice—Inhibitory Effect of 6-Dithio-Substituted-2′-Deoxyguanosine Derivatives on the Growth of Subcutaneous Transplanted Tumor Tissue in Nude Mice
1) Tumor-Bearing Mouse Model of Human Colon Cancer Cell Line HCT116
as §1

[7] = test system: human breast cancer cells MCF7; test: MTT assay, tumor cell growth inhibition, MCF7; type: cell-based; conditions: 48 hours
From the text: as §2, §3

Structure (SMILES): CC(C)SSc1nc(N)nc2c1ncn2[C@H]1C[C@H](O)[C@@H](CO)O1 [D, 6-(isopropyldithio)-2′-deoxyguanosine]
- Alanine aminotransferase [1]: 28.2 U/L
- Albumin [1]: 25.0 g/L
- Alkaline phosphatase [1]: 31.5 U/L
- Aspartate aminotransferase [1]: 122.2 U/L
- BUN [1]: 8.80 mmol/L
- Chloride ion [1]: 115.3 mmol/L
- Creatine kinase [1]: 1597 U/L
- Creatinine [1]: -3.0 µmol/L
- Glucose [1]: 3.51 mmol/L
- Potassium ion [1]: 6.43 mmol/L
- Sodium ion [1]: 157.5 mmol/L
- Total bilirubin [1]: -1.00 µmol/L
- Total cholesterol [1]: 3.21 mmol/L
- Total protein [1]: 54.2 g/L
- Triglyceride [1]: 0.70 mmol/L
- IC50 [2]: 11.7 µM
- IC50 [3]: < 10 µM
- IC50 [4]: 15.7 µM
- Antitumor effect (tumor volume) compared with controls [5]: significantly higher than that of DITC
- Extent of apoptosis in tumor tissue (TUNEL staining, rank order) ([6]; frozen tumor sections, DAPI and TUNEL, G group = blank): D group>A group≈B group≈E group (6-thio-dG group)>C group>F group (PX-12 group)>G group (KB group)
- Inhibitory effect on the growth of subcutaneous transplanted tumor tissue in nude mice (rank order, from slope of tumor volume) ([6]; tail vein once every two days for 24 days, compound A 2 mg/kg first 8 times, 10 mg/kg last 4 times, others equimolar, KB = blank): D>B≈A≈6-thio-dG>PX-12>C>KB
- Ability to inhibit the growth of transplanted tumor tissue compared with positive controls ([6]; tail vein once every two days for 24 days, equimolar doses): stronger than that of positive control 6-thio-dG and PX-12
- IC50 [7]: 41.3 µM
